Data published in patent US11059854B2, “Method for preparing steroid derivative FXR agonist” (Chia Tai Tianqing Pharmaceutical Group Co., Ltd., priority 2017, dated 2021).

Columns and labels:
[1] = biological target: T1, glutathione-S-transferase-labeled FXR human protein (Homo sapiens, UniProt Q96RI1); test: FXR biochemical experiment (alphascreen, coactivator recruitment); conditions: for FXR enzymatic activity Efficacy: highest signal relative to highest signal of the reference compound; for EC50: alphascreen, GST-FXR human protein with biotin-labeled steroid receptor coactivator, read-out: FXR enzymatic activity EC50
T1 construct: purchased Invitrogen
T1 sequence (Q96RI1 1-486): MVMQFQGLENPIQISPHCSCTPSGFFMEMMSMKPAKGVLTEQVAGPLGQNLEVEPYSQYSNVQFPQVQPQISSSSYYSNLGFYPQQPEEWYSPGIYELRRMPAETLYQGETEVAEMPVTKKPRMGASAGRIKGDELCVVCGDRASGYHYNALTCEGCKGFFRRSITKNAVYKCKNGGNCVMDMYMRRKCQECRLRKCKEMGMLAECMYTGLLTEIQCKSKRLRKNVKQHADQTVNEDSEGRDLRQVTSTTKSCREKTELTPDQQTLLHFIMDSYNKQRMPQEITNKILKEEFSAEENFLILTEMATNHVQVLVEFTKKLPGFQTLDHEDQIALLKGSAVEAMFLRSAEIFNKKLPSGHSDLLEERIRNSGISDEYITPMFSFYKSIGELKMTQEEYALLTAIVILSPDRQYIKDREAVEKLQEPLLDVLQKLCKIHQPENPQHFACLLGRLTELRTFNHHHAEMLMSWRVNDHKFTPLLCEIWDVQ
Experimental: FXR Biochemical Experiment
The activation of compounds on FXR binding reaction was examined by a homogeneous proximity luminescenceamplification test (alphascreen).
Protein: glutathione-S-transferase-labeled FXR human protein (Invitrogen)
Co-activator: Biotin-labeled steroid receptor coactivator (Anaspec)
Detection reagent: homogeneous proximity luminescence amplification test (alphascreen) Detection Kit (PerkinElmer)
Compound dilution: the test compound was prepared as a 40 μM DMSO solution, and then diluted 3-fold to 10 concentration points. The reference compound was prepared as a 400 μM DMSO solution, followed by diluted 1.5-fold to 10 concentration points. The diluted DMSO solution was added to the wells of a 384-well plate in a volume of 150 nL per well.
Glutathione-S-transferase-labeled FXR human protein and biotin-labeled steroid receptor coactivator were formulated as mixed solutions with concentrations of 0.4 nM and 30 nM, respectively, which was added to the wells of the 384-well plate in a volume of 15 per well, and the plate was incubated for 1 hour at room temperature.
The experiment process was carried out with protecting from light. The incubation was performed for 1 hour at room temperature.
The experiment process was carried out by protecting from light. The incubation was performed for 1 hour at room temperature.

[2] = biological target: T2, FXR (FXR HEK 293T DA cell line) (Homo sapiens, UniProt Q96RI1); test: FXR cell experiment (β-lactamase reporter gene); assay type: cell-based
T2 construct: The UAS-driven beta-lactamase is the reporter
T2 sequence (Q96RI1 262-486 limits assumed): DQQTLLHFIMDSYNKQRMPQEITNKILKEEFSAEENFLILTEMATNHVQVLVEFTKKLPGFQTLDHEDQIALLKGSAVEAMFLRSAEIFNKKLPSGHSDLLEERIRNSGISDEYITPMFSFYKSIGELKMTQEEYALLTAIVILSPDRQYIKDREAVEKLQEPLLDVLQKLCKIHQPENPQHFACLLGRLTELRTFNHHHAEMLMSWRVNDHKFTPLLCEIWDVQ
Experimental: 2. Cell culture medium: DMEM medium supplemented with 10% serum and Penicillin/Streptomycin (1×).
3. Detection reagent: GeneBLAzer® Reporter Gene Detection Kit (Invitrogen)
1. Compound dilution: the test compound was prepared as a 100 μM DMSO solution, and then the compound was diluted 3-fold to 10 concentration points. The reference compound was prepared as a 100 μM DMSO solution, and then diluted 1.3-fold to 10 concentration points. The diluted DMSO solution was added to the wells of a 384-well plate in a volume of 200 nL per well.
3. The 384-well microplate was incubated at 37° C., 5% CO2 for 16 hours.
4. 6 μL of 1 mM LiveBLAzer™-FRET B/G (CCF4-AM) substrate was mixed with 60 μL of B solution and 934 μL of C solution, which was added to the wells of a 384-well plate in a volume of 8 μL per well.
5. The 384-well microplate was incubated in dark for 2 hours at room temperature.
7. Analytical data: the data were analyzed by using Prism 5.0 to calculate the EC50 value of the activation of the compound.

[3] = Pharmacokinetics in mice administrated with single compound; assay type: in vivo, C57BL/6J male mice; conditions: for drug exposure compared with obeticholic acid / peak concentration compared with obeticholic acid: oral, same dosage (10 mg/kg), in words
Experimental: Twelve C57BL/6J male mice were randomly divided into two groups, 6 mice in each group. […] Plasma (using K2-EDTA as anticoagulant) samples were taken at 0.083, 0.25, 0.5, 1, 2, 4, 6, 8 and 24 hours after administration for the intravenous group; and plasma samples were taken at 0.25, 0.5, 1, 2, 4, 6, 8 and 24 hours after administration for the oral group. For 6 animals in each group, blood samples were collected for 3 animals at one time point, and the first batch of 3 animals was alternately sampled with the second batch of 3 animals. Plasma sample analysis was performed by using LC-MS/MS. The obtained plasma concentrations were plotted against time, and PK parameters were calculated by using Phoenix WinNonlin 6.3.

[4] = Liver-blood ratio experiment of mice via cassette dosing; assay type: in vivo, C57BL/6J male mice; conditions: for Liver concentration 0.5 h / Liver/plasma concentration ratio 0.5 h / Plasma concentration 0.5 h / Liver concentration 3 h / Liver/plasma concentration ratio 3 h / Plasma concentration 3 h: oral cassette 2 mg/kg/compound
Experimental: Six C57BL/6J male mice were grouped as one oral group. The preparation contained 5 kinds of the developed drugs, and 2 mg/kg/compound was intragastrically administered (the solvent was 0.5% HPMC aqueous solution). The five compounds were firstly dissolved in the solvent, respectively, by ultrasonication or vortex, to form 1 mg/mL solutions (clear solution or suspension), and then the solutions of the five compound were mixed in equal volumes (1:1:1:1:1, v:v:v:v:v) in a glass bottle. After intragastrical oral administration, plasma and liver tissue samples were collected from 3 animals at 0.5 hours after administration; corresponding samples were collected from the other 3 animals at 3 hours after administration. After collection, the liver tissue was homogenized by using ice-cold homogenization buffer (methanol: 15 mM PBS buffer (pH 7.4)=1:2, v:v) according to liver weight: homogenization buffer volume=1:3. Plasma and liver tissue samples were analyzed by using a five-in-one LC-MS/MS analysis method developed in advance. Plasma concentrations and liver tissue homogenate concentrations were obtained, and the concentration ratio of liver tissue to plasma was calculated by using Excel.

[5] = male, C57BL/6J, mouse, plasma, oral (intragastric) 10 mg/kg, 0.5% HPMC
[6] = oral, same dosage (2 mg/kg), 0.5 hours and 3 hours, in words

Structure (SMILES) | FXR enzymatic activity Efficacy [1] [%] | EC50 ([2]; FXR HEK 293T DA cells, β-lactamase reporter, 16 hours, read-out: FXR cell viability EC50) [nM] | FXR cell viability Efficacy ([2]; highest signal relative to reference compound CDCA) [%] | drug exposure compared with obeticholic acid [3] | peak concentration compared with obeticholic acid [3] | EC50 [1] [nM] | Liver concentration 0.5 h [4] [nM] | Liver/plasma concentration ratio 0.5 h [4] | Plasma concentration 0.5 h [4] [nM] | Liver concentration 3 h [4] [nM] | Liver/plasma concentration ratio 3 h [4] | Plasma concentration 3 h [4] [nM] | AUC [3, 5] [µM·h] | Cmax [3, 5] [nM] | Tmax [3, 5] [min] | drug concentrations in the liver compared with control compound [4, 6] | liver/plasma concentration ratios compared with control compound [4, 6]
CC[C@H]1[C@@H](O)[C@@H]2[C@H](CC[C@]3(C)[C@@H]([C@H](C)CCOc4ncc(C(=O)O)cc4Cl)CC[C@@H]23)[C@@]2(C)CC[C@@H](O)C[C@@H]12 [The compound of formula I-Cl] | 248 | 3 | 150 | higher than that of the control compound obeticholic acid | higher than that of the control compound obeticholic acid | – | – | – | – | – | – | – | – | – | – | – | –
CC[C@H]1[C@@H](O)[C@@H]2[C@H](CC[C@]3(C)[C@@H]([C@H](C)CCOc4ncc(C(=O)O)cc4F)CC[C@@H]23)[C@@]2(C)CC[C@@H](O)C[C@@H]12 [The compound of formula I-F] | 138 | – | – | – | – | 2.5 | – | – | – | – | – | – | – | – | – | – | –
CC[C@H]1[C@@H](O)[C@@H]2[C@H](CC[C@]3(C)[C@@H]([C@H](C)CCC(=O)O)CC[C@@H]23)[C@@]2(C)CC[C@@H](O)C[C@@H]12 [Obeticholic acid, obeticholic acid, reference compound] | – | – | – | – | – | – | 711 | 5 | 151 | 625 | 10 | 63 | – | – | – | – | –
CC[C@H]1[C@@H](O)[C@@H]2[C@H](CC[C@]3(C)[C@@H]([C@H](C)CCOc4ccc(C(=O)O)cn4)CC[C@@H]23)[C@@]2(C)CC[C@@H](O)C[C@@H]12 [The compound of formula I-H] | 249 | – | – | higher than that of the control compound obeticholic acid | close to that of the control compound obeticholic acid | 6 | 1959 | 24 | 83 | 701 | 16 | 45 | 2.34 | 936 | 30 | higher than those of the control compound | higher than those of the control compound
